Experimental findings from paper PMC4129416, “YLT192, a Novel, Orally Active Bioavailable Inhibitor of VEGFR2 Signaling with Potent Antiangiogenic Activity and Antitumor Efficacy in Preclinical Models” (Scientific Reports, 2014) are described below.

The target in one data set is T1, ALK (Homo sapiens, UniProt Q9UM73).
T1 construct: purchased Millipore (Kinase Profile Service, UK)
In words: Radiometric kinase assay (Millipore Kinase Profile Service). It counts as biochemical. The note with it: means ± SD, two independent experiments, read-out: inhibition rate at 1 μM (%). The method, then: (§1) YLT192 was designed and synthesized in the State Key Laboratory of Biotherapy, Sichuan University (Sichuan, China). Its structural formula and synthesis route was shown in Fig. 1A and Supplementary Figure S1, respectively. The kinase inhibitory activity of YLT192 was measured by the use of radiometric assays provided by Kinase Profile Service (Millipore, UK). The effects of YLT192 on kinase activity were detected using the scintillation proximity assay method at an enzymatic level. […] In addition, the inhibitory activity of YLT192 was examined against platelet-derived growth factor receptor (PDGFR)-related kinases because of their structural similarity to the VEGFR2. […] Moreover, excellent selectivity for VEGFR2 was evident compared with a range of unrelated tyrosine and serine/threonine kinases, including fibroblast growth factor receptor 3, polo-like kinase 1, aurora-A, Axl, MET, protein kinase A, c-RAF etc.

For another data set, the target named is T2, Aurora-B (Homo sapiens, UniProt Q96GD4).
T2 construct: purchased Millipore (Kinase Profile Service, UK)
The description is as above. It counts as biochemical. As to conditions: means ± SD, two independent experiments, read-out: inhibition rate at 1 μM (%). The method, then: as §1

The target in another data set is T3, Axl (Homo sapiens, UniProt P30530).
T3 construct: purchased Millipore (Kinase Profile Service, UK)
The description is as above. Format: biochemical. The note with it: means ± SD, two independent experiments, read-out: inhibition rate at 1 μM (%). The method, then:
as §1

The next data set has as its target T4, CDK2/cyclinE (Homo sapiens, UniProt P24941).
T4 construct: purchased Millipore (Kinase Profile Service, UK)
The data set is described as above. It counts as biochemical. The note with it: means ± SD, two independent experiments, read-out: inhibition rate at 1 μM (%). The procedure:
as §1

The next data set deals with T5, CDK6/cyclinD3 (Homo sapiens, UniProt Q00534).
T5 construct: purchased Millipore (Kinase Profile Service, UK)
Described as above. As to conditions: means ± SD, two independent experiments, read-out: inhibition rate at 1 μM (%). It counts as biochemical. The procedure: as §1

The next data set has as its target T6, EGFR (Homo sapiens, UniProt P00533).
T6 construct: purchased Millipore (Kinase Profile Service, UK)
Described as above. Format: biochemical. The note with it: means ± SD, two independent experiments, read-out: inhibition rate at 1 μM (%). The procedure: as §1

The next data set concerns the target T7, FGFR2 (Homo sapiens, UniProt P21802).
T7 construct: purchased Millipore (Kinase Profile Service, UK)
The description is as above. It counts as biochemical. As to conditions: means ± SD, two independent experiments, read-out: inhibition rate at 1 μM (%). The procedure:
as §1

A further data set concerns the target T8, FGFR3 (Homo sapiens, UniProt P22607).
T8 construct: purchased Millipore (Kinase Profile Service, UK)
Described as above. It counts as biochemical. As to conditions: means ± SD, two independent experiments, read-out: inhibition rate at 1 μM (%). The method, then: as §1

The target in another data set is T9, Flt3 (Homo sapiens, UniProt P36888).
T9 construct: purchased Millipore (Kinase Profile Service, UK)
The data set is described as above. Format: biochemical. The note with it: means ± SD, two independent experiments. The procedure:
as §1

For the next data set, the target named is T10, Fms (Homo sapiens, UniProt P07333).
T10 construct: purchased Millipore (Kinase Profile Service, UK)
The data set is described as above. Format: biochemical. As to conditions: means ± SD, two independent experiments, read-out: inhibition rate at 1 μM (%). The method, then:
as §1

The target of a further data set is T11, GSK3β (Homo sapiens, UniProt P49841).
T11 construct: purchased Millipore (Kinase Profile Service, UK)
The description is as above. Format: biochemical. The note with it: means ± SD, two independent experiments, read-out: inhibition rate at 1 μM (%). The procedure:
as §1

A further data set has as its target T12, JNK3 (Homo sapiens, UniProt P53779).
T12 construct: purchased Millipore (Kinase Profile Service, UK)
The data set is described as above. It counts as biochemical. The note with it: means ± SD, two independent experiments, read-out: inhibition rate at 1 μM (%). The procedure: as §1

Another data set concerns the target T13, PDGFRα (Homo sapiens, UniProt P16234).
T13 construct: purchased Millipore (Kinase Profile Service, UK)
The description is as above. Format: biochemical. The note with it: means ± SD, two independent experiments, read-out: inhibition rate at 1 μM (%). The procedure: as §1

In the next data set the target is T14, c-RAF (Homo sapiens, UniProt P04049, Y340D/Y341D).
T14 construct: purchased Millipore (Kinase Profile Service, UK)
Described as above. Format: biochemical. The note with it: means ± SD, two independent experiments, read-out: inhibition rate at 1 μM (%). The method, then: as §1

A further data set relates to HCT116 cells. Description: EdU incorporation assay. It counts as cell-based, human. The note with it: 24 h treatment, concentration-dependent. The procedure: (§2) The proliferative inhibitory ability of YLT192 on tumor cells was investigated. […] Inhibition of cell proliferation is a possible approach for cancer treatment. EdU incorporation assay was performed to investigate the anti-proliferative effects of YLT192 against U251 and HCT116 cells.
(§3) Figure 4 Inhibitory effects of YLT192 on tumor cells. (A) YLT192 inhibited U251 and HCT116 cells proliferation. The EdU incorporation assay was conducted on U251 and HCT116 cells after treated with YLT192 for 24 hours. The EdU-positive (red fluorescent staining) cells and Hoechst staining (blue fluorescent staining) cells represented proliferating and total cells in the fluorescent images, respectively (100×). Quantification was shown on the right panels. (B) YLT192 induced apoptosis of HCT116 cells. HCT116 cells were treated with YLT192 or vehicle for 48 hours followed by flow cytometric analysis of annexin V-FITC and PI staining. The proportion of early apoptotic cells (annexin V positive) and late apoptotic cells (annexin V and PI positive cells) were shown. Typical apoptosis-related proteins caspase 3 and Bax were detected by western blot. Each has the expression of β-actin as internal control. […] U251 and HCT116 cells were treated with YLT192 or vehicle for 48 hours and the expression of protein in different signaling pathways were detected by western blot with specific antibodies. […]

The subject of another data set is U251 cells. Description: EdU incorporation assay. The note with it: 24 h treatment, concentration-dependent. Format: cell-based, human. The procedure:
as §2, §3

A further data set can be described thus: Acute toxicity test. Format: in vivo. The note with it: rats. The method, then:
All the HCT116 model mice were sacrificed after 24 days of treatment.
Acute toxicity test was done to investigate the safety profiles of YLT192 on rats. Briefly, 7–8 week old female and male rats (n = 10, respectively) were orally administrated with YLT192 at 3000 mg/kg. Then clinical symptoms of the rats including mortality, body weight and gross findings were observed once daily for 14 days. On day 14, the rats were sacrificed and examined by necropsy.

“And” between values parts separate entries of the source, which are not always exact repeats. Equal values may be shown once.

T9 sequence (P36888 27-993): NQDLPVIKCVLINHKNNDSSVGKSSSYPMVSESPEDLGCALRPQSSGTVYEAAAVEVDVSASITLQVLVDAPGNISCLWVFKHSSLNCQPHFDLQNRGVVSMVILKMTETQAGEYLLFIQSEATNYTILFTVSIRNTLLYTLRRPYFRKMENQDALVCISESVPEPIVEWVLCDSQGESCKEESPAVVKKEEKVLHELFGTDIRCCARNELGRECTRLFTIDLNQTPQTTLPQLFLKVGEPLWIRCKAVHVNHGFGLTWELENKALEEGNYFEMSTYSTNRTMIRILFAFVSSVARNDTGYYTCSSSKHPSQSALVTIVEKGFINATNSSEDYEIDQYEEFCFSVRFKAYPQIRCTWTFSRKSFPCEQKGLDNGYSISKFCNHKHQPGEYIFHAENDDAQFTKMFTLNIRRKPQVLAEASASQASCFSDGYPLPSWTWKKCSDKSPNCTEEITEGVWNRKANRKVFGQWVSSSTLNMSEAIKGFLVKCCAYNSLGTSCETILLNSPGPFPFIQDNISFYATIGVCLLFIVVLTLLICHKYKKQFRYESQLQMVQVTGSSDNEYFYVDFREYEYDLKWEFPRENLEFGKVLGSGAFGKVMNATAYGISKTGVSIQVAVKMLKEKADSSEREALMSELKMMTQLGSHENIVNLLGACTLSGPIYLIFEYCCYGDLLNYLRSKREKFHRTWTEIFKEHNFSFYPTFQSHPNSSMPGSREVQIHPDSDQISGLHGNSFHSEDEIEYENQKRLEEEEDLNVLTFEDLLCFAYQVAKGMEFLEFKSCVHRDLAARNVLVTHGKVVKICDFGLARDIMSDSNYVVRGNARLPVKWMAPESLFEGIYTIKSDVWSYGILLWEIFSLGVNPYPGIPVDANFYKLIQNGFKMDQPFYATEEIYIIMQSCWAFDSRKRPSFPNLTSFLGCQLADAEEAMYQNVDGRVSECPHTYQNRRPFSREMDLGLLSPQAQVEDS
T14 sequence (P04049 306-648 Y340D/Y341D limits assumed): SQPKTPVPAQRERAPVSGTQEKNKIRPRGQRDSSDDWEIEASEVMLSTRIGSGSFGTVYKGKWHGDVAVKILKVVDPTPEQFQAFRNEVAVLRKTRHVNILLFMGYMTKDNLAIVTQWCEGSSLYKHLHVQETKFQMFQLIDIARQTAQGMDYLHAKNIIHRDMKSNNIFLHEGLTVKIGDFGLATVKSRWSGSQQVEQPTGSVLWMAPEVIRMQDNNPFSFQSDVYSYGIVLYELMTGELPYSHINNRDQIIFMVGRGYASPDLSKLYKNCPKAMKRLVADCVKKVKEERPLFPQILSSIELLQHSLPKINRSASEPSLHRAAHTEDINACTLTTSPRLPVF
T3 sequence (P30530 26-894): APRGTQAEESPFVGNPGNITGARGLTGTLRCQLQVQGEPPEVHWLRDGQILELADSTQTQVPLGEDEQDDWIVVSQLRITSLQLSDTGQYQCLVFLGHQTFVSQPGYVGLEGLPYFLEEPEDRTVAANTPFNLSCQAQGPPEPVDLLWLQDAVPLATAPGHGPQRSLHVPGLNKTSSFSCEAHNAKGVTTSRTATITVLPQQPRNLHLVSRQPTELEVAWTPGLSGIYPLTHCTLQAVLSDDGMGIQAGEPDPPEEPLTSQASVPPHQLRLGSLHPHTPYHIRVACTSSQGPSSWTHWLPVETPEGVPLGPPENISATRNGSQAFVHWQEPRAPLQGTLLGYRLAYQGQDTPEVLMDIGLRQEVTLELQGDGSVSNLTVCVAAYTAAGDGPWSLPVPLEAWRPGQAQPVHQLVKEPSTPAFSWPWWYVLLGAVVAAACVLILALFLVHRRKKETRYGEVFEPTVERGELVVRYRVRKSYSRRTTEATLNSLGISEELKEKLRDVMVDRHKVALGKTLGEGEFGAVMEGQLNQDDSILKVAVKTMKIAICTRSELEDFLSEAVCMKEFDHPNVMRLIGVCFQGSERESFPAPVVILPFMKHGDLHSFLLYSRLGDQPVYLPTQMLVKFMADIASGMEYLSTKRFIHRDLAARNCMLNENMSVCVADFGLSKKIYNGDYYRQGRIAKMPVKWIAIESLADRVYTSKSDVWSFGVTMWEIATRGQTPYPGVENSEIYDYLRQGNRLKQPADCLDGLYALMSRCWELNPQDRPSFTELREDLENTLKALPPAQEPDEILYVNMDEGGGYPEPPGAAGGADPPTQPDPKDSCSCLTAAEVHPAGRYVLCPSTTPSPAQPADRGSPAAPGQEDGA
T11 sequence (P49841 whole entry): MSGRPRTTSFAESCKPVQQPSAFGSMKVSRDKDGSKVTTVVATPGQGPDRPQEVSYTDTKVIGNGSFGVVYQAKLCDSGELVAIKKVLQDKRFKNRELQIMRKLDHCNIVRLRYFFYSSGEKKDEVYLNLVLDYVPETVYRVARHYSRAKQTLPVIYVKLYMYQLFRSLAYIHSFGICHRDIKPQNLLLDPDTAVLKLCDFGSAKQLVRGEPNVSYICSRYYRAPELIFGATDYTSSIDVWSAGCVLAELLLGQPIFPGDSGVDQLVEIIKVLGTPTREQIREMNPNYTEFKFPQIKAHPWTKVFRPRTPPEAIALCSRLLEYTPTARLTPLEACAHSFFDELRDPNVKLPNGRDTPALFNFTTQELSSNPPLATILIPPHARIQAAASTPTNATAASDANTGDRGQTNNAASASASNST
T13 sequence (P16234 24-1089): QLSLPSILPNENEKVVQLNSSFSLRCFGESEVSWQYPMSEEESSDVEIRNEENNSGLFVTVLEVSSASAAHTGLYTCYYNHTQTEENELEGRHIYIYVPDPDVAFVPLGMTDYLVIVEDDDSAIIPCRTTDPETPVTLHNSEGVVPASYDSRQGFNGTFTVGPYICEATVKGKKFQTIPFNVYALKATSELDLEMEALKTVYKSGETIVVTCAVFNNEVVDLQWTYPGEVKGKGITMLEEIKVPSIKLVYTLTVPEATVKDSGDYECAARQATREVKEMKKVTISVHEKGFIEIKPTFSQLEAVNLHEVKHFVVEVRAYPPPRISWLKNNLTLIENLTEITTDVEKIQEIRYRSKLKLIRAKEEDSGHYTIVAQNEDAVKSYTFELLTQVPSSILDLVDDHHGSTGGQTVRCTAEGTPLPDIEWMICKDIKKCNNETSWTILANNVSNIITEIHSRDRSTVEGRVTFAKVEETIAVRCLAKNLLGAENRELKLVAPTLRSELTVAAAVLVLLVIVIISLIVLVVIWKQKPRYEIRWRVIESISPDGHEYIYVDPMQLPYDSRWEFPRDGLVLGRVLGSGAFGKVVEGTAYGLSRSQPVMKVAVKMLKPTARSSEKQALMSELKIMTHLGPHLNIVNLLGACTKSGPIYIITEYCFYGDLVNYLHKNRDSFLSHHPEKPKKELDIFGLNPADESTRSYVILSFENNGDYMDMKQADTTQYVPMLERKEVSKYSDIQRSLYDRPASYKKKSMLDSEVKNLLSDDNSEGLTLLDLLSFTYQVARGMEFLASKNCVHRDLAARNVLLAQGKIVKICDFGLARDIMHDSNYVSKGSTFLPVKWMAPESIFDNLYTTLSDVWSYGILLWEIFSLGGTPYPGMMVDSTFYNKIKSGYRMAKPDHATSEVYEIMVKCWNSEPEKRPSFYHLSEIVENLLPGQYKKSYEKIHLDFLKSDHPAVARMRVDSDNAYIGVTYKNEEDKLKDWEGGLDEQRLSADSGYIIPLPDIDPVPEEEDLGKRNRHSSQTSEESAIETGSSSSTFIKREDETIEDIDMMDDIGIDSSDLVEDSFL
T2 sequence (Q96GD4 whole entry): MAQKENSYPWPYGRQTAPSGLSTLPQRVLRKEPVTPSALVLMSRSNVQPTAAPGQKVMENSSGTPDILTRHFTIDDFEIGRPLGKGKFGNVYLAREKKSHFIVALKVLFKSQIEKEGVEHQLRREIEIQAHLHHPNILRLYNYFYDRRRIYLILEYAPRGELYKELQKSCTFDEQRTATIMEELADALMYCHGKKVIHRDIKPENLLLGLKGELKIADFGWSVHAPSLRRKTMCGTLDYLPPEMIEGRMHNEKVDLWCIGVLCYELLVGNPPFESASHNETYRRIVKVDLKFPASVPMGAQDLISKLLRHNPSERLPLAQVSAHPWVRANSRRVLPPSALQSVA
T5 sequence (Q00534 whole entry): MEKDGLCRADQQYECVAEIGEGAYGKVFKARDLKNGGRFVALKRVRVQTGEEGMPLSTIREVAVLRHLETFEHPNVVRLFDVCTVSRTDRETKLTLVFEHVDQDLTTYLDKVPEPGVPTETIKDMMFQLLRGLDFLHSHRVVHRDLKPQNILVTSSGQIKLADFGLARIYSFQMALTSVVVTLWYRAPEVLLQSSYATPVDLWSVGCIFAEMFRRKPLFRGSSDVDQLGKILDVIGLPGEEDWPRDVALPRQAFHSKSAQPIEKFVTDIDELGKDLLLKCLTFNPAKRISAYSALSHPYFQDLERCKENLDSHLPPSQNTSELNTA
T5 sequence (P30281 whole entry partner): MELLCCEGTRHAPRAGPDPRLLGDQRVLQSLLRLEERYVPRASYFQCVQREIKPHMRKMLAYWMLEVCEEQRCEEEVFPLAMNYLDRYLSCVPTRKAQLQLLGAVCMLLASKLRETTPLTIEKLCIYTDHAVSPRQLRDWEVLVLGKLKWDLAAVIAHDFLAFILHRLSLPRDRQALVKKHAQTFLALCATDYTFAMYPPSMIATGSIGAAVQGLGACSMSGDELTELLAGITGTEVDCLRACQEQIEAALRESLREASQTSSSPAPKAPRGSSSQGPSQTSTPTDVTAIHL

As for `CNC(=O)c1cc(Oc2ccc(NC(=O)c3cccc(OC)c3)cc2)ccn1` [YLT192], the inhibition at 1 µM at ALK is -4 ± 3%; on Aurora-B, 23 ± 5%; at Axl it was -7 ± 7%; on CDK2/cyclinE, -9 ± 3%; at CDK6/cyclinD3, 0%; on EGFR it was 1 ± 6%. Further, the inhibition at 1 µM on FGFR2 was found to be 19 ± 4%; at FGFR3, 4 ± 6%; on Fms it was 35 ± 11%; at GSK3β, 4 ± 6%; on JNK3 it was 3 ± 5%; at PDGFRα, 5 ± 3%. The inhibition at 1 µM on c-RAF was 3 ± 3%. Besides, on Flt3, the “inhibition rate at 1 μM (%)” value was 0% and −6 ± 2%. Also, the “percentage of proliferating cells, EdU incorporation” value in the data set with HCT116 cells and with U251 cells was “decreased a lot” each time. Moreover, in “Acute toxicity test” (both sexes, rat, in vivo, single oral 3000 mg/kg, 14 days observation, read-out: No Observed Adverse Effect Level (NOAEL)), the NOAEL at 14 days is > 3000 mg/kg. The “mortality, clinical signs, and body weight” value in “Acute toxicity test” (oral 3000 mg/kg, 14 days) was “no obvious changes were observed”.
